Values quoted from earlier work in US20240180950A1, “Prevention and Treatment of Post-Infection Neurological Disorders and Clotting/Thrombotic Disorders” (priority 2021, published 2024).

Details: 250 mg, 500 mg, 1000 mg, 2000 mg, and 4000 mg per day, per person, in 2 or 3 divided doses

Structure (SMILES): Nc1nc2c(ncn2[C@@H]2O[C@H](COP(=O)(O)O)[C@@H](O)[C@H]2O)c(=O)[nH]1 [guanosine monophosphate]
- safety of daily human doses of guanosine monophosphate: safe
